This note sets out measurements from article PMC8696196 (RSC Advances, 2021).

The target of this assay is H3N2 E119V (A/Moscow/10/99 background, E119V mutation in the neuraminidase gene). Type of assay: cell-based, influenza A virus. Conditions: read-out: EC50 H3N2 E119V.

The term EC50 denotes the concentration at which the effect is half-maximal. Consider `CCC(CC)O[C@@H]1C=C(C(=O)O)C[C@H](n2nncc2-c2cccc(N)c2)[C@H]1NC(C)=O` [Compound 2j, (3R,4R,5S)-4-Acetamido-5-[5-(3-aminophenyl)-1H-1,2,3-triazol-1-yl]-3-(pentan-3-yloxy)cyclohex-1-ene-1-carboxylic acid], for which the EC50 is greater than 100 µM.

Consider `CCC(CC)O[C@@H]1C=C(C(=O)O)C[C@H](N)[C@H]1NC(C)=O` [OSC, oseltamivir carboxylate, reference compound], for which the EC50 was greater than 100 µM.
